Data from US11117888B2, “Irreversible inhibitors of pyruvate kinase M2 and the use thereof” (China Medical University, priority 2020, dated 2021).

System: MCF-7 breast cancer cells
Experiment: MTT cell viability assay, MCF-7
Type: cell-based
Details: Homo sapiens, MCF7; MCF-7, MTT, 24 hours
Description: Cell lines, cell culture, biochemical reagents, and antibodies. MiaPaCa-2, AsPC-1, and Panc-1 human pancreatic cancer cells, MCF-7 and MDA-MB-231 breast cancer cells, SCC4 and SCC2059 oral cancer cells, PC-3 and LNCaP prostate cancer cells, H157, H460, H1975, PC-9 and H1650 lung cancer cells were obtained from the American Type Culture Collection (ATCC, Manassas, Va.). All these cells were maintained in recommended growth medium (RPMI 1640 or DMEM) supplemented with 10% fetal bovine serum (FBS) (Invitrogen, Carlsbad, Calif., USA) and antibiotics at 37° C. in a humidified incubator containing 5% CO2. For SILAC experiments, PC-9 cells were grown in SILAC DMEM medium (Thermo Fisher) supplemented with 10% dialyzed FBS and 100 μg/mL each of unlabeled L-arginine and L-lysine (light medium) or ^13C/^15N stable isotope-labeled L-arginine and L-lysine (heavy medium). […]
Cell viability assays. Drug effects on cell viability was assessed by 3-(4,5-dimethylthiazol-2-yl)-2,5-diphenyltetrazolium bromide ([…]) assays. […] The medium was then removed from each well and replaced with DMSO to dissolve the reduced MTT dye for subsequent colorimetric measurement of absorbance at 560 nm. Cell viabilities are expressed as percentages of viable cells relative to the corresponding vehicle-treated control group.

C#CC(=O)Nc1ccc(-n2nc(CCC(=O)NC)cc2-c2ccc(-c3ccc(C(F)(F)F)cc3)cc2)cc1 [compound 1, N-(4-(3-(3-(Methylamino)-3-oxopropyl)-5-(4′-(trifluoromethyl)-[1,1′-biphenyl]-4-yl)-1H-pyrazol-1-yl)phenyl)propiolamide]
IC50: 1000 nM
